Laboratory results: ChEMBL document CHEMBL1201862, “PubChem BioAssay data set” (2004)
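These data come from cells grown in 96-well plates and exposed to compound for 48 hours at five concentrations. GI50 = concentration required for 50% inhibition of growth.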 The source made the active and inactive calls. Rule as the data show it: active = GI50 up to about 1.1 µM and inactive = higher.

How the values were obtained:
Experiment in all cases: NCI-60 cell line screen, 48 h
DMS-273 = test system: DMS-273
K562 = test system: K562
SK-MEL-5 = test system: SK-MEL-5
COLO 205 = test system: COLO 205
EKVX = test system: EKVX
SW-620 = test system: SW-620
OVCAR-4 = test system: OVCAR-4
LOX IMVI = test system: LOX IMVI
SNB-19 = test system: SNB-19
UO-31 = test system: UO-31
SK-OV-3 = test system: SK-OV-3
Malme-3M = test system: Malme-3M
HL-60 = test system: HL-60
LXFL 529 = test system: LXFL 529
KM12 = test system: KM12
NCI-H23 = test system: NCI-H23
HT-29 = test system: HT-29
CAKI-1 = test system: CAKI-1
A549 = test system: A549
IGROV-1 = test system: IGROV-1
DLD-1 = test system: DLD-1
786-0 = test system: 786-0
A498 = test system: A498
HOP-62 = test system: HOP-62
SF-268 = test system: SF-268
TK-10 = test system: TK-10
ACHN = test system: ACHN
M14 = test system: M14
KM-20L2 = test system: KM-20L2
HCC 2998 = test system: HCC 2998
HOP-92 = test system: HOP-92
SF-295 = test system: SF-295
NCI-H460 = test system: NCI-H460
OVCAR-3 = test system: OVCAR-3
NCI-H522 = test system: NCI-H522
HCT-15 = test system: HCT-15
DMS-114 = test system: DMS-114
U-251 = test system: U-251
RXF 631 = test system: RXF 631
SNB-75 = test system: SNB-75
UACC-62 = test system: UACC-62
CCRF-CEM = test system: CCRF-CEM
SK-MEL-2 = test system: SK-MEL-2
SNB-78 = test system: SNB-78
RXF 393 = test system: RXF 393
UACC-257 = test system: UACC-257
SN12C = test system: SN12C
SR = test system: SR
OVCAR-8 = test system: OVCAR-8
OVCAR-5 = test system: OVCAR-5
M19-MEL = test system: M19-MEL
NCI-H226 = test system: NCI-H226
MOLT-4 = test system: MOLT-4
SF-539 = test system: SF-539
HCT-116 = test system: HCT-116
SK-MEL-28 = test system: SK-MEL-28
XF498 = test system: XF498
HOP-18 = test system: HOP-18
RPMI-8226 = test system: RPMI-8226

What does the source list for COC1C2C=CC(C2)[C@H]1[N+](=O)[O-] (some centres not stated)?
GI50 (DMS-273): > 100 µM (inactive); GI50 (K562): > 100 µM (inactive); GI50 (SK-MEL-5): > 100 µM (inactive); GI50 (COLO 205): > 100 µM (inactive); GI50 (EKVX): > 100 µM (inactive); GI50 (SW-620): 95.7 µM (inactive); GI50 (OVCAR-4): > 100 µM (inactive); GI50 (LOX IMVI): > 100 µM (inactive); GI50 (SNB-19): > 100 µM (inactive); GI50 (UO-31): > 100 µM (inactive); GI50 (SK-OV-3): > 100 µM (inactive); GI50 (Malme-3M): > 100 µM (inactive); GI50 (HL-60): 28.8 µM (inactive); GI50 (LXFL 529): > 100 µM (inactive); GI50 (KM12): > 100 µM (inactive); GI50 (NCI-H23): > 100 µM (inactive); GI50 (HT-29): > 100 µM (inactive); GI50 (CAKI-1): > 100 µM (inactive); GI50 (A549): > 100 µM (inactive); GI50 (IGROV-1): > 100 µM (inactive); GI50 (DLD-1): > 100 µM (inactive); GI50 (786-0): > 100 µM (inactive); GI50 (A498): > 100 µM (inactive); GI50 (HOP-62): > 100 µM (inactive); GI50 (SF-268): > 100 µM (inactive); GI50 (TK-10): > 100 µM (inactive); GI50 (ACHN): > 100 µM (inactive); GI50 (M14): > 100 µM (inactive); GI50 (KM-20L2): > 100 µM (inactive); GI50 (HCC 2998): > 100 µM (inactive); GI50 (HOP-92): > 100 µM (inactive); GI50 (SF-295): > 100 µM (inactive); GI50 (NCI-H460): > 100 µM (inactive); GI50 (OVCAR-3): > 100 µM (inactive); GI50 (NCI-H522): > 100 µM (inactive); GI50 (HCT-15): > 100 µM; GI50 (DMS-114): > 100 µM (inactive); GI50 (U-251): > 100 µM (inactive); GI50 (RXF 631): > 100 µM (inactive); GI50 (SNB-75): > 100 µM (inactive); GI50 (UACC-62): > 100 µM (inactive); GI50 (CCRF-CEM): 74.1 µM (inactive); GI50 (SK-MEL-2): > 100 µM (inactive); GI50 (SNB-78): > 100 µM (inactive); GI50 (RXF 393): > 100 µM (inactive); GI50 (UACC-257): > 100 µM (inactive); GI50 (SN12C): > 100 µM (inactive); GI50 (SR): > 100 µM (inactive); GI50 (OVCAR-8): 56.8 µM (inactive); GI50 (OVCAR-5): > 100 µM (inactive); GI50 (M19-MEL): > 100 µM (inactive); GI50 (NCI-H226): > 100 µM (inactive); GI50 (MOLT-4): > 100 µM (inactive); GI50 (SF-539): > 100 µM (inactive); GI50 (HCT-116): > 100 µM (inactive)

CCOC(=O)C(NO)C(Sc1ccccc1)c1ccc(OC)cc1 (configuration not stated) was tested. Which GI50 (DMS-273) did it give?
The GI50 was > 100 µM (inactive).

And the GI50 (SK-MEL-5)?
Its GI50 is 30.7 µM (inactive).

And the GI50 (COLO 205)?
Its GI50 is 35.3 µM (inactive).

And the GI50 (EKVX)?
Its GI50 is > 100 µM (inactive).

And the GI50 (SW-620)?
The GI50 was > 100 µM (inactive).

What about the GI50 (LOX IMVI) of the same compound?
Its GI50 is > 100 µM (inactive).

And the GI50 (SNB-19)?
Its GI50 is > 100 µM (inactive).

And the GI50 (UO-31)?
The GI50 was 68.5 µM (inactive).

And the GI50 (SK-OV-3)?
The GI50 was > 100 µM (inactive).

And the GI50 (Malme-3M)?
The GI50 was > 100 µM (inactive).

What about the GI50 (LXFL 529) of the same compound?
Its GI50 is > 100 µM (inactive).

What about the GI50 (KM12) of the same compound?
The GI50 was 78.5 µM (inactive).

What about the GI50 (NCI-H23) of the same compound?
Its GI50 is > 100 µM (inactive).

What about the GI50 (HT-29) of the same compound?
The GI50 was > 100 µM (inactive).

What about the GI50 (A549) of the same compound?
The GI50 was 38.6 µM (inactive).

And the GI50 (IGROV-1)?
Its GI50 is > 100 µM (inactive).

And the GI50 (DLD-1)?
The GI50 was 72.9 µM (inactive).

What about the GI50 (786-0) of the same compound?
Its GI50 is > 100 µM (inactive).

What about the GI50 (HOP-62) of the same compound?
The GI50 was 88.3 µM (inactive).

And the GI50 (SF-268)?
Its GI50 is > 100 µM (inactive).

What about the GI50 (SK-MEL-28) of the same compound?
Its GI50 is > 100 µM (inactive).

What about the GI50 (TK-10) of the same compound?
Its GI50 is > 100 µM (inactive).

What about the GI50 (ACHN) of the same compound?
Its GI50 is 71.3 µM (inactive).

And the GI50 (M14)?
Its GI50 is > 100 µM (inactive).

And the GI50 (KM-20L2)?
The GI50 was > 100 µM (inactive).

What about the GI50 (HCC 2998) of the same compound?
The GI50 was > 100 µM (inactive).

What about the GI50 (HOP-92) of the same compound?
Its GI50 is > 100 µM (inactive).

And the GI50 (SF-295)?
The GI50 was > 100 µM (inactive).

And the GI50 (NCI-H460)?
Its GI50 is 44.4 µM (inactive).

And the GI50 (OVCAR-3)?
The GI50 was 91 µM (inactive).

What about the GI50 (NCI-H522) of the same compound?
The GI50 was 34.8 µM (inactive).

And the GI50 (HCT-15)?
Its GI50 is 68.9 µM.

What about the GI50 (DMS-114) of the same compound?
The GI50 was 64.7 µM (inactive).

And the GI50 (U-251)?
Its GI50 is > 100 µM (inactive).

And the GI50 (SNB-75)?
The GI50 was 55.5 µM (inactive).

And the GI50 (UACC-62)?
The GI50 was 37.6 µM (inactive).

And the GI50 (SK-MEL-2)?
Its GI50 is > 100 µM (inactive).

What about the GI50 (XF498) of the same compound?
The GI50 was 31 µM (inactive).

And the GI50 (HOP-18)?
Its GI50 is > 100 µM (inactive).

And the GI50 (SNB-78)?
Its GI50 is > 100 µM (inactive).

And the GI50 (RXF 393)?
The GI50 was 23.9 µM (inactive).

And the GI50 (RPMI-8226)?
Its GI50 is 55.3 µM (inactive).

And the GI50 (UACC-257)?
The GI50 was 65.9 µM (inactive).

And the GI50 (SN12C)?
Its GI50 is > 100 µM (inactive).

What about the GI50 (SR) of the same compound?
Its GI50 is > 100 µM (inactive).

And the GI50 (OVCAR-8)?
Its GI50 is > 100 µM (inactive).

And the GI50 (OVCAR-5)?
Its GI50 is > 100 µM (inactive).

What about the GI50 (M19-MEL) of the same compound?
Its GI50 is 69.2 µM (inactive).

And the GI50 (NCI-H226)?
The GI50 was 81.8 µM (inactive).

And the GI50 (MOLT-4)?
Its GI50 is 42.1 µM (inactive).

And the GI50 (SF-539)?
The GI50 was > 100 µM (inactive).

And the GI50 (HCT-116)?
Its GI50 is 34.9 µM (inactive).
